Assay [1] has as its system class I HDAC (e.g., HDAC1, HDAC2, HDAC3). The settings on record: cited from earlier work.
The target in assay [2] is T1, class III isoenzyme SIRT1 (Homo sapiens, UniProt Q96EB6).
T1 sequence (Q96EB6 1-747): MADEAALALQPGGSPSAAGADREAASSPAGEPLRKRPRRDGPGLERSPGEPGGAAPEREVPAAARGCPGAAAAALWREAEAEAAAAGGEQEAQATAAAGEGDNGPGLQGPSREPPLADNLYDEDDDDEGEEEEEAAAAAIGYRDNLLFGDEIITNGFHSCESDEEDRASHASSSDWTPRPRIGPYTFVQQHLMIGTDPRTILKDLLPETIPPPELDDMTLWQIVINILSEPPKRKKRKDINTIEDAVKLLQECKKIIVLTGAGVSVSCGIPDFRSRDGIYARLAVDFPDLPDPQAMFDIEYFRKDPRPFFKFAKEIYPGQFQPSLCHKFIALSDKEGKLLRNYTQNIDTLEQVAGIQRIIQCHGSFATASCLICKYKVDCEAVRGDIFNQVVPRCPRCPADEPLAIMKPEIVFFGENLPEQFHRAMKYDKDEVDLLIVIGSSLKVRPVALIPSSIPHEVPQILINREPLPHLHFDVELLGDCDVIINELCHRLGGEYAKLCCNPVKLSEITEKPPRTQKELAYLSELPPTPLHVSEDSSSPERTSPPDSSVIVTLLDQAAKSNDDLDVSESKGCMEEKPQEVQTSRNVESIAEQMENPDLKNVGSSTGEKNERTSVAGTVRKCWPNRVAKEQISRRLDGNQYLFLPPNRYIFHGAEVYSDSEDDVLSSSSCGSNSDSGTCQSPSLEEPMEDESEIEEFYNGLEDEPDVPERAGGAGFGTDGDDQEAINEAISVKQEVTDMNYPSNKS
The settings on record: cited from earlier work.

The subject of assay [3] is iPSC-derived CD34+CD45+ HSPCs. Put plainly: ATAC-seq of iPSC-derived CD34+CD45+ HSPCs treated during EHT. The format is cell-based, human. Conditions: 500 nM or 1 μM during conversion of HE into HSPCs for 5 days, versus DMSO. As for the experimental part:
FIGS. 6A-6C are a series of schematics and graphs showing that G9a modulates chromatin accessibility of lymphoid genes. FIG. 6A is a schematic showing the experimental design. FIG. 6B is a heatmap showing assay for transposase-accessible chromatin using sequencing (ATAC-seq) peaks enriched in iPSC-derived CD34+CD45+ HSPCs that were treated with control vehicle (“DMSO”), 500 nM of UNC0224 (“UNC low”), or 1 μM of UNC0224 (“UNC high”) during the conversion of CD34+CD45− HE into CD34+CD45+ HSPCs for 5 days; 5 peaks are shown, labeled K1-K5.
FIGS. 6A-6C show the mechanism by which G9a (EHMT2) regulates lymphoid fate decision in iPSC-derived HSPCs (iPSC-HSPCs). The iPSCs were first differentiated into CD34+ HEs, and the cells were then treated with DMSO or G9a inhibitor UNC0224 during the EHT stage, which allowed the HEs to specify into CD34+CD45+ HSPCs. ATAC-seq analysis was then performed on these iPSC-HSPCs to detect ATAC peaks that indicated accessible chromatin regions (as indicated by higher ATAC-seq scores).

Assay [4] deals with iPSC-derived EHT cells. Kind of assay: RNA-seq of G9a-inhibitor treated EHT cells, PANTHER overrepresentation test. The format is cell-based, human. The settings on record: for Client Text Box Input (fold Enrichment): UNC0224 treated vs control EHT cells. As for the experimental part: RNA-seq analysis was performed on the same samples as in FIG. 6A.

With `Cn1cc(/C=C/C(=O)c2cccc(F)c2)cc1/C=C/C(=O)NO` [MC1568], in assay [1], the “inhibition of class I HDAC activity” value was “Class II HDAC (e.g., HDAC4 and HDAC5) inhibitor. Displays no inhibition of class I HDAC activity (e.g., HDAC1, HDAC2, HDAC3)”.

Consider `CCCCc1nc2cc(/C=C/C(=O)NO)ccc2n1CCN(CC)CC` [SB939 (Pracinostat)], for which the “activity against the class III isoenzyme SIRT1” value in assay [2] is “no activity”.

As to `COc1cc2c(NC3CCN(C)CC3)nc(N3CCCN(C)CC3)nc2cc1OCCCN(C)C` [UNC0224], the “ATAC-seq peaks upregulated in treated cells” value in assay [3] was “associated with genes that are responsible for lymphoid differentiation/function”. In addition, the “Client Text Box Input (fold Enrichment)” value in assay [4] (B cell mediated immunity (GO:0019724)) came out at 7.3; in assay [4] (T cell activation (GO:0042110)), 14.53; in assay [4] (T cell differentiation (GO:0030217)), 18.46; in assay [4] (adaptive immune response (GO:0002250)), 6.79; in assay [4] (adaptive immune response based on somatic recombination of immune receptors built from immunoglobulin superfamily domains (GO:0002460)) it was 7.89; in assay [4] (antigen processing and presentation (GO:0019882)), 29.42. For the same compound, the “Client Text Box Input (fold Enrichment)” value turned out to be 5.69 in assay [4] (cell activation (GO:0001775)); 4.83 in assay [4] (cell-cell adhesion (GO:0098609)); 2.21 in assay [4] (cellular component assembly (GO:0022607)); 2.44 in assay [4] (cellular component biogenesis (GO:0044085)); 1.63 in assay [4] (cellular component organization or biogenesis (GO:0071840)); 4.21 in assay [4] (cellular protein-containing complex assembly (GO:0034622)). Also, the “Client Text Box Input (fold Enrichment)” value in assay [4] (gene expression (GO:0010467)) was 1.58; in assay [4] (immune effector process (GO:0002252)), 6.63; in assay [4] (immune response (GO:0006955)), 2.87; in assay [4] (immune system process (GO:0002376)), 2.61; in assay [4] (immunoglobulin mediated immune response (GO:0016064)), 7.3; in assay [4] (leukocyte activation (GO:0045321)), 6.09. Further, the “Client Text Box Input (fold Enrichment)” value is recorded as 15.11 in assay [4] (leukocyte cell-cell adhesion (GO:0007159)); 7.27 in assay [4] (leukocyte mediated immunity (GO:0002443)); 6.42 in assay [4] (lymphocyte activation (GO:0046649)); 7.62 in assay [4] (lymphocyte mediated immunity (GO:0002449)); 22.09 in assay [4] (positive regulation of T cell activation (GO:0050870)); 2.02 in assay [4] (positive regulation of biological process (GO:0048518)). Also, the “Client Text Box Input (fold Enrichment)” value in assay [4] (positive regulation of cell activation (GO:0050867)) was determined as 6.29; in assay [4] (positive regulation of cell adhesion (GO:0045785)), 17.95; in assay [4] (positive regulation of cell-cell adhesion (GO:0022409)) it was 21.54; in assay [4] (positive regulation of cellular process (GO:0048522)), 2.11; in assay [4] (positive regulation of immune system process (GO:0002684)) it was 5.43; in assay [4] (positive regulation of leukocyte activation (GO:0002696)) it was 6.29. The “Client Text Box Input (fold Enrichment)” value in assay [4] (positive regulation of leukocyte cell-cell adhesion (GO:1903039)) was found to be 22.09; in assay [4] (positive regulation of lymphocyte activation (GO:0051251)), 6.53; in assay [4] (production of molecular mediator of immune response (GO:0002440)) it was 7.58; in assay [4] (protein-containing complex assembly (GO:0065003)) it was 3.99; in assay [4] (protein-containing complex subunit organization (GO:0043933)) it was 3.43; in assay [4] (regulation of T cell activation (GO:0050863)) it was 16.25. Also, the “Client Text Box Input (fold Enrichment)” value is listed as 5.42 in assay [4] (regulation of cell activation (GO:0050865)); 10.77 in assay [4] (regulation of cell adhesion (GO:0030155)); 15.11 in assay [4] (regulation of cell-cell adhesion (GO:0022407)); 4.07 in assay [4] (regulation of immune system process (GO:0002682)); 5.49 in assay [4] (regulation of leukocyte activation (GO:0002694)); 16.89 in assay [4] (regulation of leukocyte cell-cell adhesion (GO:1903037)). For the same compound, the “Client Text Box Input (fold Enrichment)” value in assay [4] (regulation of lymphocyte activation (GO:0051249)) worked out at 5.82. The “RNA-seq gene expression change” value in assay [4] (treated versus control EHT cells) is “upregulation of genes associated with lymphoid development and function”.

Source of the values: patent publication US20240158750A1, “STROMA-FREE NK CELL DIFFERENTIATION FROM HUMAN PLURIPOTENT STEM CELLS” (The Children's Medical Center Corporation, priority 2021, published 2024).
